The target in one assay is T1, human TLR2 (Homo sapiens, UniProt O60603).
T1 construct: host or cells: HEK293 (HEK-Blue hTLR2)
Nature of the assay: HEK-Blue hTLR2 NF-κB/AP-1 SEAP reporter cell assay. The class given is cell-based. To be noted: HEK-Blue hTLR2 reporter cells, 10 μg/mL to 10 pg/ml, 24 hours, OD at 655 nm; FIGS. 3A, 3B. The protocol: (§1) Some conjugated compounds of the invention were tested for their ability to activate TLR7 and TLR2 receptor signaling. Cell-based assays were carried out using TLR7 and TLR2 reporter cell lines (InvivoGen). The reporter cell lines are engineered HEK293 cells, a human embryonic kidney cell line (ATCC, CRL-1573) that stably express either murine TLR7 (HEK-Blue™ mTLR7) or human TLR7 (HEK-Blue™ hTLR7) or murine TLR2 (HEK-Blue™ mTLR2) or human TLR2 (HEK-Blue™ hTLR2) with an NF-κB-inducible secreted embryonic alkaline phosphatase (SEAP) as the reporter gene. The SEAP reporter gene is placed under the control of the NF-κB and AP-inducible promoter. Stimulation with the corresponding TLR ligand activates NF-κB and AP-1, which induces the production of SEAP. Detection of SEAP is measured following culturing cells in HEK-Blue™ Detection media (InvivoGen). HEK-Blue™ Detection contains a SEAP substrate, which upon hydrolysis by SEAP produces a colorimetric change allowing for detection of SEAP as the protein is secreted. […] These assays were carried out using RAW-Blue™ Cells (InvivoGen), derived from RAW 264.7 mouse leukemic monocytic macrophage cell line (ATCC, CRL 2278) stably overexpressing a NF-κB/AP-1 inducible SEAP reporter constructs.
(§2) To perform the assay, cells were seeded on 96 well microliter plates at 50,000 or 100,000 cells per well for HEK-Blue™ Cells and RAW-Blue™ Cells respectively, and cultured at 37° C. in the presence of the conjugated compounds. The conjugated compounds were prepared as follows: First, stock solutions of the small molecule conjugated compounds of the invention were prepared in ethanol or water to a concentration of 10 mg/ml. A working dilution of the conjugated TLR7-TLR2 small molecules was made up in water and added to cells at a final range of concentrations from 10 μg/mL to 10 pg/ml. The working dilutions of the conjugated TLR7-TLR2 small molecules as the stated concentrations were directly added to the reporter cell lines and incubated at 37° C. for 24 hours. After 24 hours of incubation, the effect on reporter gene activity was determined by reading the OD at 655 nm using iMark™ Microplate Reader (BIO-RAD).
(§3) The conjugated compounds were tested alone for their ability to specifically activate TLR7 and TLR2, alongside the known TLR7 activators R848 or CL264 (InvivoGen) and the TLR2 agonists Pam2CSK4 or Pam3CSK4 (InvivoGen). The specificity of the TLR activity was determined by use of reporter cell lines to the other TLRs (data not shown). […] The molecules show a tendency to activate mouse TLR7 with greater sensitivity than human TLR7. […] Furthermore, dose-dependent responses of the conjugated compounds indicate significant TLR activities of TLR7 and TLR2 compared to the corresponding controls.

The next assay deals with T2, human TLR7 (Homo sapiens, UniProt Q9NYK1).
T2 construct: host or cells: HEK293 (HEK-Blue hTLR7)
T2 sequence (Q9NYK1 27-1049): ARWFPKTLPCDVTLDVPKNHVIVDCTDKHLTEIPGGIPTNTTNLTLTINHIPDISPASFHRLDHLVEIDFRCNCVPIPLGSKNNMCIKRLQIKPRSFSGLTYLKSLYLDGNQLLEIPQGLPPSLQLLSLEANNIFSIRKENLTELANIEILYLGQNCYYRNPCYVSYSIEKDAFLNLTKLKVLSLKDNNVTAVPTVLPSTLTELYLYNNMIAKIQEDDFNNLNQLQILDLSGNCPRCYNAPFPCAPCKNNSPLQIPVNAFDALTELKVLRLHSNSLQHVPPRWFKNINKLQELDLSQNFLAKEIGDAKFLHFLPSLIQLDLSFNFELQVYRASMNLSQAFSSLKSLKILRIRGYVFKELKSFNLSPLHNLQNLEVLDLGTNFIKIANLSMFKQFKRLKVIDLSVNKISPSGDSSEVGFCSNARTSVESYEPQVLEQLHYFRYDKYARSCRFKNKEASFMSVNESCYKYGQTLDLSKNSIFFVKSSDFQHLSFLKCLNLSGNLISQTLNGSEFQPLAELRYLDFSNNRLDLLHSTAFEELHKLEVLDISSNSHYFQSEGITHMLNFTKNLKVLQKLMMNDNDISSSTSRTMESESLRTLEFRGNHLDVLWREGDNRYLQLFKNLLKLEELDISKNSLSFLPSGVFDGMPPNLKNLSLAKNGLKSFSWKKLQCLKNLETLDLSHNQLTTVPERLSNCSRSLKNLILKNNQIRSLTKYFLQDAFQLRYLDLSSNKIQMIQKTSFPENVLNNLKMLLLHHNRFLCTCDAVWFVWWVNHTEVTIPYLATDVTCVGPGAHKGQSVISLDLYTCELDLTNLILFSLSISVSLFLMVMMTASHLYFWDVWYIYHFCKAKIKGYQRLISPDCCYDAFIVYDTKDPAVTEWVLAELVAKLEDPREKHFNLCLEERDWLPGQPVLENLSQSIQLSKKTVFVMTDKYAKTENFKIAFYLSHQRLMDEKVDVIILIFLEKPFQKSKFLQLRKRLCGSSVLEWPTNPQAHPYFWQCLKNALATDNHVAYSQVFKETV
Nature of the assay: HEK-Blue hTLR7 NF-κB/AP-1 SEAP reporter cell assay. The class given is cell-based. The following applies: HEK-Blue hTLR7 reporter cells, 10 μg/mL to 10 pg/ml, 24 hours, OD at 655 nm; FIGS. 1A, 1B. The protocol:
as §1, §2, §3

Assay [1] concerns NF-κB in RAW-Blue™ Cells (RAW 264.7, endogenous TLR7 and TLR2). Nature of the assay: RAW-Blue Cells NF-κB/AP-1 inducible SEAP reporter assay. To be noted: murine monocytic macrophage cell line RAW 264.7, 24 hours, OD at 655 nm; FIGS. 5A, 5B. The class given is cell-based, mouse. The protocol: as §1, §2, §3
(In general: Reporter assays use an easily measured gene product as a stand-in for the process of interest.)

T1 sequence (O60603 21-784): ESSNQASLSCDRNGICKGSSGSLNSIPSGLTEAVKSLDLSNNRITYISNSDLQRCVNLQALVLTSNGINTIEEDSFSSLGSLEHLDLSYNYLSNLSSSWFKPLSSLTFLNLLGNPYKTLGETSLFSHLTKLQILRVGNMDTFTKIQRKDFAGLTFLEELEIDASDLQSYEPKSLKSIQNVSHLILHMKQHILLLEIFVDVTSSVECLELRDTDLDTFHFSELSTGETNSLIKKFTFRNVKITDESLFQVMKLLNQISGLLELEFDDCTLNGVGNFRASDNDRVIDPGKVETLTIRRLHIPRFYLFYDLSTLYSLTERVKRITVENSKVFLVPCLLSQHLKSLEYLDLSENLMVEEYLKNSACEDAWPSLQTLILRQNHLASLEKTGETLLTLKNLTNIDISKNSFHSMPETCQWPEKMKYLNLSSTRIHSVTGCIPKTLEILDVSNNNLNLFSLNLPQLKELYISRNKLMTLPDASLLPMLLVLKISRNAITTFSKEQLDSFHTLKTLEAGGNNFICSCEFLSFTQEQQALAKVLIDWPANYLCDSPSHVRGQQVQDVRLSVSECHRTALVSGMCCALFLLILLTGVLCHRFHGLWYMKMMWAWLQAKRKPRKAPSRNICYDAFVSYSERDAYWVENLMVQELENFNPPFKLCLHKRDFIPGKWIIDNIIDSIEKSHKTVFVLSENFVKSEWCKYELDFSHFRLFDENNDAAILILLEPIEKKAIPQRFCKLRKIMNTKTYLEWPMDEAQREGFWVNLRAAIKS

Take `CCCCCCCCCCCCCCCC(=O)OCC(CSC[C@H](N)C(=O)Nc1ccc(Cn2c(O)nc3c(N)nc(NCCCC)nc32)cc1)OC(=O)CCCCCCCCCCCCCCC` (mixture of isomers) [CL401, (R)-3-(2-amino-3-(4-((6-amino-2-(butylamino)-8-hydroxy-9H-purin-9-yl)methyl)phenylamino)-3-oxopropylthio)propane-1,2-diyl dipalmitate]: at human TLR2, the “ability to activate TLR2 receptor (human TLR2)” value is listed as “activate TLR2 receptor”. The “ability to activate TLR7 receptors (human TLR7)” value on human TLR7 is listed as “activate TLR7 receptors”. Moreover, the “induction of NF-κB in RAW-Blue cells” value in assay [1] was “activate NF-κB”.

The values above are taken from patent US9567336B2, “Conjugated TLR7 and/or TLR8 and TLR2 agonists” (CAYLA, priority 2012, dated 2017).
